According to patent publication US20070293467A1, “Demethyl-Cantharidin Platinum Complex Isomers and Their Use” (priority 2004, published 2007):
Read-outs that look alike come from different tables or passages of the source.

Experiments:
Type in all cases: cell-based
SK-Hep = assay: MTT tetrazolium microculture growth inhibition, SK-Hep; conditions: for IC50: SK-Hep, 72 h exposure, MTT, read-out: Average growth-inhibitory activity (IC50); for in vitro antitumor activity against SK-Hep: in words, from Table 5
Experimental: (§1) DMC platinum complexes, together with controls cisplatin, carboplatin, and oxaliplatin were screened for an in vitro antitumor activity against various tumorous cell lines, using a tetrazolium microculture assay.
(§2) Drugs: Drugs to be tested were dissolved in a complete medium at twice the highest concentration to be used, followed by filtration (0.22 μm) sterilization. A series of log dilutions were made from each drug solution using complete medium. All drug solutions were prepared 10 minutes before addition to cells.
(§3) In vitro drug exposure: For each drug to be tested, trypsinized cells were adjusted to a concentration of 2×10^5 cells/ml in a complete medium, and 0.1 ml of the cell suspension was added to each of 24 wells in a 96-well microculture plate. The plate was then incubated at a standard condition for 24 hours in order to allow the cells to be adhered to the bottom of the well and restart exponential growth. To each well of the control culture and drug/concentration combinations, 0.1 ml of the complete medium and drug solution were added, respectively. Each drug/concentration combination consisting of four replicates while the control culture consisting of 12 replicates. The twelve replicates of a blank control containing 0.2 ml of the complete medium were set aside to account for the background. The cultures were incubated for additional 72 hours. All tests were repeated at least 3 times on different occasions.
(§4) MTT assay: The MTT (tetrazolium) assay was used to determine the growth-inhibitory effects of different drugs. A 5 mg/ml solution of MTT (3-(4,5-dimethylthiazol-2-yl)-2,5-diphenyltetrazolium bromide) was prepared in phosphate buffer saline (pH 7.4), sterilized by filtration (0.22 μm) and stored at −20° C. To each well, 0.02 ml of an MTT solution was added, and the plate was incubated for 4 hours under standard conditions. The medium in each well was then removed, and 0.1 ml of DMSO (dimethylsulfoxide) was added to each well to solubilize the colored dye produced from the metabolic reduction of MTT. The amount of reduced MTT was measured by spectrophotometric means (570 nm).
(§5) Data analysis: A mean value of OD was determined for all of the 12 control wells. For each concentration of each drug, A mean OD of the 4 wells was determined. All the mean ODs were subtracted from the blank to account for the background. The “Percent of Control” values were determined and plotted.

SK-Hep resistance = assay: MTT tetrazolium microculture growth inhibition, SK-Hep resistance; conditions: for IC50: SK-Hep resistance, 72 h exposure, MTT, read-out: Average growth-inhibitory activity (IC50); for resistance of SK-Hep to the drug: SK-Hep resistance vs SK-Hep, from IC50 of Table 5
Experimental: as §1, §2, §3, §4, §5

Huh-7 = assay: MTT tetrazolium microculture growth inhibition, Huh-7; conditions: for IC50: Huh-7, 72 h exposure, MTT, read-out: Average growth-inhibitory activity (IC50); for in vitro antitumor activity against Huh-7 cell: in words, from Table 5
Experimental: as §1, §2, §3, §4, §5

Huh-7 resistance = assay: MTT tetrazolium microculture growth inhibition, Huh-7 resistance; conditions: for IC50: Huh-7 resistance, 72 h exposure, MTT, read-out: Average growth-inhibitory activity (IC50); for cross-resistance of Huh-7: Huh-7 resistance vs Huh-7, within experimental errors; for resistance of Huh-7 to the drug: Huh-7 resistance vs Huh-7, from IC50 of Table 5
Experimental: as §1, §2, §3, §4, §5

[1] = system: liver cancer cell line PLC/5; assay: MTT tetrazolium microculture growth inhibition, PLC/5; conditions: for IC50: PLC/5, 72 h exposure, MTT, read-out: Average growth-inhibitory activity (IC50); for activity against liver cancer cell line PLC/5: in words, from Table 5
Experimental: as §1, §2, §3, §4, §5

[2] = system: colorectal cancer cell line Colo320; assay: MTT tetrazolium microculture growth inhibition, Colo320; conditions: for IC50: Colo320, 72 h exposure, MTT, read-out: Average growth-inhibitory activity (IC50); for activity against colorectal cancer cell line Colo320: in words, from Table 5
Experimental: as §1, §2, §3, §4, §5

L1210 = assay: MTT tetrazolium microculture growth inhibition, L1210; conditions: 72 h exposure, read-out: Average growth-inhibitory activity (IC50)
Experimental: as §1, §2, §3, §4, §5

L1210 resistance = assay: MTT tetrazolium microculture growth inhibition, L1210 resistance; conditions: for resistance / cross-resistance of L1210: L1210 resistance vs L1210; for IC50: L1210 resistance, 72 h exposure, MTT, read-out: Average growth-inhibitory activity (IC50)
Experimental: as §1, §2, §3, §4, §5

HCT-116 = assay: MTT tetrazolium microculture growth inhibition, HCT-116; conditions: 72 h exposure, read-out: Average growth-inhibitory activity (IC50)
Experimental: as §1, §2, §3, §4, §5

HT-29 = assay: MTT tetrazolium microculture growth inhibition, HT-29; conditions: 72 h exposure, read-out: Average growth-inhibitory activity (IC50)
Experimental: as §1, §2, §3, §4, §5

`O=C1[O][Pt]2([NH][C@@H]3CCCC[C@H]3[NH]2)[O]C(=O)C2C3CCC(O3)C12` (stereo partly drawn) [Trans-R,R(−)-DMC platinum complex, Trans-R,R-(−)-DMC platinum complex] was tested, and the IC50 (SK-Hep) was 6.63 ± 2.21 µM, the “in vitro antitumor activity against SK-Hep” value (SK-Hep) was “effective in vitro antitumor activities” and the IC50 (SK-Hep resistance) was 4.7 ± 0.95 µM. For the same molecule, the IC50 (Huh-7) was 3.65 ± 1.1 µM, the “in vitro antitumor activity against Huh-7 cell” value (Huh-7) was “effective in vitro antitumor activities” and the IC50 (Huh-7 resistance) was 26.9 ± 6.14 µM. The IC50 [1] was 3.23 ± 1.13 µM, the “activity against liver cancer cell line PLC/5” value [1] was “effective activities” and the IC50 [2] was 2.45 ± 0.83 µM. For the same molecule, the “activity against colorectal cancer cell line Colo320” value [2] was “more effective”, the IC50 (L1210) was 0.76 ± 0.09 µM and the “resistance / cross-resistance of L1210” value (L1210 resistance) was “no cross-resistance”. The IC50 (L1210 resistance) was 0.99 ± 0.1 µM, the IC50 (HCT-116) was 0.45 ± 0.27 µM and the IC50 (HT-29) was 0.92 ± 0.57 µM.
With `O=C1[O][Pt]2([NH][C@H]3CCCC[C@@H]3[NH]2)[O]C(=O)C2C3CCC(O3)C12` (stereo partly drawn) [Trans-S,S(+)-DMC platinum complex, Trans-S,S-(+)-DMC platinum complex] the IC50 (SK-Hep) was 6.15 ± 1 µM, the “in vitro antitumor activity against SK-Hep” value (SK-Hep) was “effective in vitro antitumor activities” and the IC50 (SK-Hep resistance) was 8.09 ± 0.89 µM. For the same molecule, the IC50 (Huh-7) was 8.46 ± 1.51 µM, the “in vitro antitumor activity against Huh-7 cell” value (Huh-7) was “effective in vitro antitumor activities” and the IC50 (Huh-7 resistance) was 16.2 ± 2.6 µM. For the same molecule, the IC50 [1] was 6.26 ± 1.87 µM, the “activity against liver cancer cell line PLC/5” value [1] was “effective activities” and the IC50 [2] was 4.96 ± 1.32 µM. For the same molecule, the “activity against colorectal cancer cell line Colo320” value [2] was “more effective”, the IC50 (L1210) was 0.11 ± 0.05 µM and the “resistance / cross-resistance of L1210” value (L1210 resistance) was “no cross-resistance”. It also gave an IC50 (L1210 resistance) of 0.12 ± 0.06 µM, an IC50 (HCT-116) of 2.04 ± 0.41 µM and an IC50 (HT-29) of 3.07 ± 0.73 µM.
With `O=C1[O][Pt]2([NH][C@H]3CCCC[C@H]3[NH]2)[O]C(=O)C2C3CCC(O3)C12` (stereo partly drawn) [Cis-DMC platinum complex] the IC50 (SK-Hep) was 19.4 ± 2.23 µM, the IC50 (SK-Hep resistance) was 22.7 ± 1.11 µM and the IC50 (Huh-7) was 19 ± 1.46 µM. The “cross-resistance of Huh-7” value (Huh-7 resistance) was “no cross-resistance”, the IC50 (Huh-7 resistance) was 17.1 ± 0.77 µM and the IC50 [1] was 17.1 ± 1.18 µM. The IC50 [2] was 5.98 ± 0.97 µM and the IC50 (HCT-116) was 12.6 ± 1.67 µM.
With `N.N.[Cl][Pt][Cl]` [Cisplatin, reference compound] the IC50 (SK-Hep) was 13.5 ± 1.84 µM, the “resistance of SK-Hep to the drug” value (SK-Hep resistance) was 4 fold and the IC50 (SK-Hep resistance) was 51.8 ± 7.01 µM. For the same molecule, the IC50 (Huh-7) was 11.7 ± 1.21 µM, the “resistance of Huh-7 to the drug” value (Huh-7 resistance) was 1.5 fold and the IC50 (Huh-7 resistance) was 25.6 ± 3.5 µM. The IC50 [1] was 6.92 ± 1.46 µM, the IC50 [2] was 2.54 ± 0.48 µM and the IC50 (L1210) was 0.82 ± 0.14 µM. The “resistance / cross-resistance of L1210” value (L1210 resistance) was “high resistance”, the IC50 (L1210 resistance) was 14 ± 1.49 µM and the IC50 (HCT-116) was 4.14 ± 0.8 µM. The IC50 (HT-29) was 12.1 ± 2.25 µM.
`O=C1OC(=O)C2C3CCC(O3)C12` (stereo not shown) [DMC, Demethylcantharidin, reference compound] showed an IC50 (SK-Hep; SKHep) of 19 ± 2.01 µM, an IC50 (SK-Hep resistance; SKHep) of 25.5 ± 1.69 µM and an IC50 (Huh-7; Homo sapiens) of 32.9 ± 3.68 µM. The IC50 (Huh-7 resistance; Homo sapiens) was 26.9 ± 3.03 µM, the IC50 ([1]; PLC5) was 25.3 ± 1.98 µM and the IC50 ([2]; Homo sapiens, COLO 320) was 23.9 ± 1.42 µM. It also gave an IC50 (L1210; Mus musculus) of 31.2 ± 1.79 µM, an IC50 (L1210 resistance; Mus musculus) of 45.5 ± 3.69 µM and an IC50 (HCT-116; Homo sapiens) of 23.2 ± 2.06 µM. The IC50 (HT-29; Homo sapiens) was 32.7 ± 2.57 µM.
With `O=C1[O][Pt]2([NH][C@@H]3CCCC[C@H]3[NH]2)[O]C(=O)C2C3CCC(O3)C12` (mixture of isomers) [Trans-DMC platinum complex, Trans-Racemic DMC Platinum Complex] the IC50 (SK-Hep) was 4.27 ± 1.03 µM, the “in vitro antitumor activity against SK-Hep” value (SK-Hep) was “effective in vitro antitumor activities” and the IC50 (SK-Hep resistance) was 5.01 ± 0.68 µM. For the same molecule, the IC50 (Huh-7) was 4.47 ± 0.79 µM, the “in vitro antitumor activity against Huh-7 cell” value (Huh-7) was “effective in vitro antitumor activities” and the “cross-resistance of Huh-7” value (Huh-7 resistance) was “no cross-resistance”. The IC50 (Huh-7 resistance) was 5.99 ± 0.52 µM, the IC50 [1] was 4.64 ± 1.01 µM and the “activity against liver cancer cell line PLC/5” value [1] was “effective activities”. The IC50 [2] was 2.54 ± 0.95 µM, the “activity against colorectal cancer cell line Colo320” value [2] was “more effective” and the IC50 (L1210) was 0.14 ± 0.06 µM. The “resistance / cross-resistance of L1210” value (L1210 resistance) was “no cross-resistance”, the IC50 (L1210 resistance) was 0.17 ± 0.05 µM and the IC50 (HCT-116) was 0.81 ± 0.29 µM. For the same molecule, the IC50 (HT-29) was 2.09 ± 0.69 µM.
For `O=C1[O][Pt]2([NH][C@@H]3CCCC[C@H]3[NH]2)[O]C1=O` [Oxaliplatin, reference compound], the IC50 (SK-Hep) was 9.09 ± 4.24 µM, the IC50 (Huh-7) was 8.97 ± 4.56 µM and the IC50 [1] was 6.48 ± 3.19 µM. It also gave an IC50 [2] of 1 ± 0.31 µM.
With `N.N.O=C([O-])C1(C(=O)[O-])CCC1.[Pt+2]` [Carboplatin, reference compound] the IC50 (SK-Hep) was 134 ± 10.3 µM, the “resistance of SK-Hep to the drug” value (SK-Hep resistance) was “about 2.7 fold” and the IC50 (SK-Hep resistance) was 358 ± 28 µM. For the same molecule, the IC50 (Huh-7) was 117 ± 9.82 µM, the “resistance of Huh-7 to the drug” value (Huh-7 resistance) was 1.5 fold and the IC50 (Huh-7 resistance) was 176 ± 54 µM. It also gave an IC50 [1] of 80.2 ± 15.8 µM, an IC50 [2] of 41.7 ± 5.44 µM and an IC50 (L1210) of 12.8 ± 2.14 µM. The “resistance / cross-resistance of L1210” value (L1210 resistance) was “high resistance”, the IC50 (L1210 resistance) was 126 ± 17.2 µM and the IC50 (HCT-116) was 69.4 ± 14.7 µM. The IC50 (HT-29) was 134 ± 15 µM.
